Test results: paper PMC8480901 (PLoS ONE, 2021)
Where “and” joins values, the source holds several entries; their conditions need not be identical. Equal entries are not always repeated.

System: human PBMCs
Experiment: LPS-induced cytokine and chemokine levels in human PBMC supernatant (Luminex, ELISA)
Type: cell-based
Conditions: for CCl2, % reduction / CXCL1 % reduction / CXCL2 % reduction / MMP9 % reduction / CCl2, Mean / CXCL1, Mean / CXCL2, Mean / MMP9, Mean / CCl2, individual value / CXCL1, individual value / CXCL2, individual value / MMP9, individual value: LPS-stimulated PBMC supernatant; for CCl2, Mean / CXCL1, Mean / CXCL2, Mean / MMP9, Mean: sample size 2; for CCl2, individual value / CXCL1, individual value / CXCL2, individual value / MMP9, individual value: single replicate
[1] = LPS-stimulated human PBMC supernatant, 0.03 µM

SMILES: CC[C@H]1OC(=O)[C@H](C)[C@@H](O[C@H]2C[C@@](C)(OC)[C@@H](O)[C@H](C)O2)[C@H](C)[C@@H](O[C@@H]2O[C@H](C)C[C@H](N(C)C)[C@H]2O)[C@](C)(O)C[C@@H](C)CN(C)[C@H](C)[C@@H](O)[C@]1(C)O [Azithromycin]
- CCl2, % reduction (0.03 µM): -5.55%
- CXCL1 % reduction (0.03 µM): -4.76%
- CXCL2 % reduction (0.03 µM): 2.43%
- MMP9 % reduction (0.03 µM): -1.46%
- CCl2, Mean (0.03 µM): 1334 pg/mL
- CXCL1, Mean (0.03 µM): 6234 pg/mL
- CXCL2, Mean (0.03 µM): 4935 pg/mL
- MMP9, Mean (0.03 µM): 3019 pg/mL
- CCl2, individual value (0.03 µM): 1307 pg/mL and 1361 pg/mL
- CXCL1, individual value (0.03 µM): 6199 pg/mL and 6268 pg/mL
- CXCL2, individual value (0.03 µM): 5023 pg/mL and 4847 pg/mL
- MMP9, individual value (0.03 µM): 3072 pg/mL and 2966 pg/mL
- CCl2, % reduction (0.1 µM): -0.293%
- CXCL1 % reduction (0.1 µM): -0.522%
- CXCL2 % reduction (0.1 µM): 4.49%
- MMP9 % reduction (0.1 µM): -3.72%
- CCl2, Mean (0.1 µM): 1270 pg/mL
- CXCL1, Mean (0.1 µM): 5984 pg/mL
- CXCL2, Mean (0.1 µM): 4831 pg/mL
- MMP9, Mean (0.1 µM): 3056 pg/mL
- CCl2, individual value (0.1 µM): 1278 pg/mL and 1261 pg/mL
- CXCL1, individual value (0.1 µM): 6035 pg/mL and 5932 pg/mL
- CXCL2, individual value (0.1 µM): 4923 pg/mL and 4739 pg/mL
- MMP9, individual value (0.1 µM): 3040 pg/mL and 3071 pg/mL
- CCl2, % reduction (0.3 µM): -5.66%
- CXCL1 % reduction (0.3 µM): -5%
- CXCL2 % reduction (0.3 µM): 1.16%
- MMP9 % reduction (0.3 µM): -0.427%
- CCl2, Mean (0.3 µM): 1335 pg/mL
- CXCL1, Mean (0.3 µM): 6237 pg/mL
- CXCL2, Mean (0.3 µM): 4999 pg/mL
- MMP9, Mean (0.3 µM): 3002 pg/mL
- CCl2, individual value (0.3 µM): 1355 pg/mL and 1316 pg/mL
- CXCL1, individual value (0.3 µM): 6416 pg/mL and 6058 pg/mL
- CXCL2, individual value (0.3 µM): 4805 pg/mL and 5194 pg/mL
- MMP9, individual value (0.3 µM): 2940 pg/mL and 3064 pg/mL
- CCl2, % reduction (1 µM): -3.46%
- CXCL2 % reduction (1 µM): 5.46%
- MMP9 % reduction (1 µM): 0.166%
- CCl2, Mean (1 µM): 1309 pg/mL
- CXCL1, Mean (1 µM): 6015 pg/mL
- CXCL2, Mean (1 µM): 4782 pg/mL
- MMP9, Mean (1 µM): 2992 pg/mL
- CCl2, individual value (1 µM): 1330 pg/mL and 1287 pg/mL
- CXCL1, individual value (1 µM): 6000 pg/mL and 6030 pg/mL
- CXCL2, individual value (1 µM): 4905 pg/mL and 4659 pg/mL
- MMP9, individual value (1 µM): 2945 pg/mL
- CCl2, % reduction (3 µM): -21%
- CXCL1 % reduction (3 µM): -11%
- CXCL2 % reduction (3 µM): -6%
- MMP9 % reduction (3 µM): -3.25%
- CCl2, Mean (3 µM): 1528 pg/mL
- CXCL1, Mean (3 µM): 6579 pg/mL
- CXCL2, Mean (3 µM): 5371 pg/mL
- MMP9, Mean (3 µM): 3048 pg/mL
- CCl2, individual value (3 µM): 1488 pg/mL and 1567 pg/mL
- CXCL1, individual value (3 µM): 6461 pg/mL and 6697 pg/mL
- CXCL2, individual value (3 µM): 5747 pg/mL and 4996 pg/mL
- MMP9, individual value (3 µM): 3040 pg/mL and 3056 pg/mL
- CCl2, % reduction (10 µM): -56%
- CXCL1 % reduction (10 µM): -10%
- CXCL2 % reduction (10 µM): 2%
- MMP9 % reduction (10 µM): 7.45%
- CCl2, Mean (10 µM): 1950 pg/mL
- CXCL1, Mean (10 µM): 6547 pg/mL
- CXCL2, Mean (10 µM): 4953 pg/mL
- MMP9, Mean (10 µM): 2874 pg/mL
- CCl2, individual value (10 µM): 1899 pg/mL and 2002 pg/mL
- CXCL1, individual value (10 µM): 6457 pg/mL and 6637 pg/mL
- CXCL2, individual value (10 µM): 4894 pg/mL and 5012 pg/mL
- MMP9, individual value (10 µM): 2884 pg/mL and 2864 pg/mL
- CCl2, % reduction (30 µM): -138%
- CXCL1 % reduction (30 µM): 8%
- CXCL2 % reduction (30 µM): 10%
- MMP9 % reduction (30 µM): 5%
- CCl2, Mean (30 µM): 2956 pg/mL
- CXCL1, Mean (30 µM): 5474 pg/mL
- CXCL2, Mean (30 µM): 4573 pg/mL
- MMP9, Mean (30 µM): 2917 pg/mL
- CCl2, individual value (30 µM): 3047 pg/mL and 2865 pg/mL
- CXCL1, individual value (30 µM): 5594 pg/mL and 5354 pg/mL
- CXCL2, individual value (30 µM): 4609 pg/mL and 4537 pg/mL
- MMP9, individual value (30 µM): 2925 pg/mL and 2908 pg/mL
- CCl2, % reduction (100 µM): -63%
- CXCL1 % reduction (100 µM): 55%
- CXCL2 % reduction (100 µM): 16%
- CCl2, Mean (100 µM): 2038 pg/mL
- CXCL1, Mean (100 µM): 2693 pg/mL
- CXCL2, Mean (100 µM): 4264 pg/mL
- MMP9, Mean (100 µM): 2975 pg/mL
- CCl2, individual value (100 µM): 1970 pg/mL and 2105 pg/mL
- CXCL1, individual value (100 µM): 2693 pg/mL
- CXCL2, individual value (100 µM): 4200 pg/mL and 4328 pg/mL
- MMP9, individual value (100 µM): 2977 pg/mL and 2972 pg/mL
- GM-CSF % reduction [1]: 1.46%
- GM-CSF [pg/mL], Mean [1]: 648 pg/mL
- GM-CSF [pg/mL], individual value [1]: 664 pg/mL and 632 pg/mL
- IL-1β % reduction [1]: 4.49%
- IL-1β [pg/mL], Mean [1]: 12211 pg/mL
- IL-1β [pg/mL], individual value [1]: 11901 pg/mL
- IL-6 % reduction [1]: -0.732%
- IL-6 [pg/mL], Mean [1]: 35164 pg/mL
- IL-6 [pg/mL], individual value [1]: 34554 pg/mL and 35775 pg/mL
- IL-8 % reduction [1]: -1.46%
- IL-8 [pg/mL], Mean [1]: 3019 pg/mL
- IL-8 [pg/mL], individual value [1]: 3072 pg/mL and 2966 pg/mL
- TNF-α % reduction [1]: -24%
